Data reported in publication PMC4669708 (Cell Death & Disease, 2015).

Tests used:
Experiment in all cases: c-ponatinib pulldown LC-MS/MS
Format in all cases: binding
MAP3K1 = MAP3K1 (Homo sapiens, UniProt Q13233)
Protocol: (§1) Drug-affinity matrices were prepared as described previously.[51] In brief, 25 nmol of c-ponatinib were immobilized on 50 μl NHS-activated Sepharose 4 Fast Flow beads (GE Healthcare Bio-Sciences AB, Uppsala, Sweden). 10 mg whole cell lysate was used as protein input per replicate. Affinity chromatography and elution were performed in duplicate. After elution, the enriched proteins were reduced with dithiothreitol (DTT) and cysteine residues were alkylated by incubation with iodoacetamide. The samples were digested with modified porcine trypsin (Promega). Five percent of the digested eluates were purified and concentrated by C18 reversed-phase material. Subsequently, samples were analyzed in duplicates by gel-free one-dimensional LCMS.
(§2) Precursor and MS/MS peaks were extracted from the RAW files and saved in the MGF format using msconvert tool (ProteoWizard Library v2.1.2708, www.proteowizard.sourceforge.net) for subsequent protein identification. An initial database search was performed with broader mass tolerance and conservative score threshold to re-calibrate the mass lists for optimal final protein identification. For the initial protein database search, Mascot (www.matrixscience.com, v2.3.02) was used. Error tolerances on the precursor and fragment ions were ±10 p.p.m. and ±0.6 Da, respectively, and the database search limited to fully-tryptic peptides with maximum one missed cleavage, carbamidomethyl cysteine and methionine oxidation set as fixed and variable modifications, respectively. The Mascot peptide ion score threshold was set to 30, and at least three peptide identifications per protein were required. Searches were performed against the human UniProtKB/SwissProt database (www.uniprot.org release 2013.01) including all protein isoforms. The initial peptide identifications were used to deduce independent linear transformations for precursor and fragment masses that would minimize the mean square deviation of measured masses from theoretical. Re-calibrated mass list files were searched against the same human protein database by a combination of Mascot and Phenyx (GeneBio SA, Geneva, Switzerland; version 2.5.14) search engines using narrower mass tolerances (±4 p.p.m. and ±0.3 Da). One missed tryptic cleavage site was allowed. Carbamidomethyl cysteine was set as a fixed modification and oxidized methionine was set as a variable modification. To validate the proteins, Mascot and Phenyx output files were processed by internally developed parsers. Proteins with ≥2 unique peptides above a score T1, or with a single peptide above a score T2 were selected as unambiguous identifications. Additional peptides for these validated proteins with score >T3 were also accepted. For Mascot searches, the following thresholds were used: T1=14, T2=40 and T3=10; Phenyx thresholds were set to 4.2, 4.75 and 3.5, respectively (P-value<10^−3). The validated proteins retrieved by the two algorithms were merged, any spectral conflicts discarded and grouped according to shared peptides. A false discovery rate of <1% for protein identifications and <0.1% for peptides (including the ones exported with lower scores) was determined by applying the same procedure against a database of reversed protein sequences. […] In addition to Mascot protein scores that were proposed as an estimate of protein abundance by the original algorithm, the modified version also included Phenyx protein scores and spectral counts. The algorithm first estimated three measure-specific P-values for each putative interaction, and, in contrast to,[69] P-value calculation utilized the quantiles of the measurements rather than the original data. The Fisher's method was used to combine the three resulting P-values into a single P-value for drug–protein interaction specificity. We have also correlated interaction P-values with the magnitude of competition effect represented by the fold reduction of spectral counts on free compound competition. […]

ABL2 = ABL2 (Homo sapiens, UniProt P42684)
Protocol: as §1, §2

MAPKAPK3 = MAPKAPK3 (Homo sapiens, UniProt Q16644)
Protocol: as §1, §2

TNIK = TNIK (Homo sapiens, UniProt Q9UKE5)
Protocol: as §1, §2

MAPK11 = MAPK11 (Homo sapiens, UniProt Q15759)
Protocol: as §1, §2

MLKL = target: T1, MLKL (Homo sapiens, UniProt Q8NB16)
T1 sequence (Q8NB16 1-471): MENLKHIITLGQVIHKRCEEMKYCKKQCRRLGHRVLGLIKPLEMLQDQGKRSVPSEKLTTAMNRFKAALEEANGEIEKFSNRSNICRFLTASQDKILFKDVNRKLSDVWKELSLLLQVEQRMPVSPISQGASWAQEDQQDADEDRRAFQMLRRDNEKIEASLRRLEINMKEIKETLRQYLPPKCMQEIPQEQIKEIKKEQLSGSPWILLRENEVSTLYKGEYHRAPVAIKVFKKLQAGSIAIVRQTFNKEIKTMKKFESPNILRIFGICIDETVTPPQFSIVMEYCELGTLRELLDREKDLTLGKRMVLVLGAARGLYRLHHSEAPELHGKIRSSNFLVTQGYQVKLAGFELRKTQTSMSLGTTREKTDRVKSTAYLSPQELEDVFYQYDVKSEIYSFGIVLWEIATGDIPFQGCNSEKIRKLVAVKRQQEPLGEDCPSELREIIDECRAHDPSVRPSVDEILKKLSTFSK
Protocol: as §1, §2

CDK19 = CDK19 (Homo sapiens, UniProt Q9BWU1)
Protocol: as §1, §2

MAP4K4 = MAP4K4 (Homo sapiens, UniProt O95819)
Protocol: as §1, §2

YWHAG = target: T2, YWHAG (Homo sapiens, UniProt P61981)
T2 sequence (P61981 1-247): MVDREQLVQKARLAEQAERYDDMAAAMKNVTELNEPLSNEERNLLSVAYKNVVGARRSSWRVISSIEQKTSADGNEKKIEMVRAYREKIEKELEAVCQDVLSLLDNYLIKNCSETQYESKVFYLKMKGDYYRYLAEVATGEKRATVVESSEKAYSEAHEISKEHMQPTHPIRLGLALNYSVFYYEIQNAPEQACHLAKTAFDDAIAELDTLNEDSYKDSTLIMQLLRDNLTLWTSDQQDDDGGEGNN
Protocol: as §1, §2

TNIK, sequence (Q9UKE5 whole entry): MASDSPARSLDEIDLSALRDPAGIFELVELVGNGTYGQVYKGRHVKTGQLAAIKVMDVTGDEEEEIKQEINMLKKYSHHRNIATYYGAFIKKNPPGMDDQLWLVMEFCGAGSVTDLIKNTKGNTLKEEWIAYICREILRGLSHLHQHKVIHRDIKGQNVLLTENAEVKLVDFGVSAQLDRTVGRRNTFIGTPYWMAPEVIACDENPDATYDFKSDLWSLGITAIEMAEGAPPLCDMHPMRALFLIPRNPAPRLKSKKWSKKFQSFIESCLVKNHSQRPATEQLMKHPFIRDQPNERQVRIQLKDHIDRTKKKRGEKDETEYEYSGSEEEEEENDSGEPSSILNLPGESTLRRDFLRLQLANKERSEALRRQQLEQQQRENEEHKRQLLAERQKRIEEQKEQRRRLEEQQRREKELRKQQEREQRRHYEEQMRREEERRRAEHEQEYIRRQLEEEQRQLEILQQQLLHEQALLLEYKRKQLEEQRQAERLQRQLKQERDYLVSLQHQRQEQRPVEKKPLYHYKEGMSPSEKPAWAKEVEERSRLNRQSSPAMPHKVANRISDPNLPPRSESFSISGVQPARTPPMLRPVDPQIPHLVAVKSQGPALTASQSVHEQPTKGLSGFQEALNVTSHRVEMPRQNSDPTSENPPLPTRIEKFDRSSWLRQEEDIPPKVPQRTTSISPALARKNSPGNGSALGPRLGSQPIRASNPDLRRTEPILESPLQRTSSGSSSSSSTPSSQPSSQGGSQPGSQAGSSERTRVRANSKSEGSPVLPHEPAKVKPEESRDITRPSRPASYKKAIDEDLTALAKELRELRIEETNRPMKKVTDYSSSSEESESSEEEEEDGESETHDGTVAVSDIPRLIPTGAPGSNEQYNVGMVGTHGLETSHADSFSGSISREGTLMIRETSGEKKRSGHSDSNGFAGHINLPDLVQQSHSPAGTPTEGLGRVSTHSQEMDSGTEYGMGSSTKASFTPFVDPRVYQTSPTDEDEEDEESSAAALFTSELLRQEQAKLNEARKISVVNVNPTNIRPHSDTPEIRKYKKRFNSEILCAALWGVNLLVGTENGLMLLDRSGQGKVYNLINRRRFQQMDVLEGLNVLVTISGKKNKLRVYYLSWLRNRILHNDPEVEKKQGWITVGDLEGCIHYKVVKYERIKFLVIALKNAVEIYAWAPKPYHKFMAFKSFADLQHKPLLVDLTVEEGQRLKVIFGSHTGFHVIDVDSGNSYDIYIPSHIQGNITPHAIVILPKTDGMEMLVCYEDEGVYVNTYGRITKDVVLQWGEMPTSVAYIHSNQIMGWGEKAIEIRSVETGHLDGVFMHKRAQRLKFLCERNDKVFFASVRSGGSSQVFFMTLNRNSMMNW
MAPKAPK3, sequence (Q16644 whole entry): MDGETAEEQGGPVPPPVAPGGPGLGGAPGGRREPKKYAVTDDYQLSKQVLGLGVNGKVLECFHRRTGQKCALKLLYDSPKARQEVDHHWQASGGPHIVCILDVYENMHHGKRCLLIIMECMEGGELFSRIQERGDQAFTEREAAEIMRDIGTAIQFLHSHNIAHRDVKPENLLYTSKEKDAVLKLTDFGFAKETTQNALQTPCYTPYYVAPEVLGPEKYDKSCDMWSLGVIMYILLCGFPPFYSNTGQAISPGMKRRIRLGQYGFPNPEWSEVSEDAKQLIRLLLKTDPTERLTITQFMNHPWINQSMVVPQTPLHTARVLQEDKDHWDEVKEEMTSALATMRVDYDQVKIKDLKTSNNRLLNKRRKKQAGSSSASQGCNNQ
ABL2, sequence (P42684 whole entry): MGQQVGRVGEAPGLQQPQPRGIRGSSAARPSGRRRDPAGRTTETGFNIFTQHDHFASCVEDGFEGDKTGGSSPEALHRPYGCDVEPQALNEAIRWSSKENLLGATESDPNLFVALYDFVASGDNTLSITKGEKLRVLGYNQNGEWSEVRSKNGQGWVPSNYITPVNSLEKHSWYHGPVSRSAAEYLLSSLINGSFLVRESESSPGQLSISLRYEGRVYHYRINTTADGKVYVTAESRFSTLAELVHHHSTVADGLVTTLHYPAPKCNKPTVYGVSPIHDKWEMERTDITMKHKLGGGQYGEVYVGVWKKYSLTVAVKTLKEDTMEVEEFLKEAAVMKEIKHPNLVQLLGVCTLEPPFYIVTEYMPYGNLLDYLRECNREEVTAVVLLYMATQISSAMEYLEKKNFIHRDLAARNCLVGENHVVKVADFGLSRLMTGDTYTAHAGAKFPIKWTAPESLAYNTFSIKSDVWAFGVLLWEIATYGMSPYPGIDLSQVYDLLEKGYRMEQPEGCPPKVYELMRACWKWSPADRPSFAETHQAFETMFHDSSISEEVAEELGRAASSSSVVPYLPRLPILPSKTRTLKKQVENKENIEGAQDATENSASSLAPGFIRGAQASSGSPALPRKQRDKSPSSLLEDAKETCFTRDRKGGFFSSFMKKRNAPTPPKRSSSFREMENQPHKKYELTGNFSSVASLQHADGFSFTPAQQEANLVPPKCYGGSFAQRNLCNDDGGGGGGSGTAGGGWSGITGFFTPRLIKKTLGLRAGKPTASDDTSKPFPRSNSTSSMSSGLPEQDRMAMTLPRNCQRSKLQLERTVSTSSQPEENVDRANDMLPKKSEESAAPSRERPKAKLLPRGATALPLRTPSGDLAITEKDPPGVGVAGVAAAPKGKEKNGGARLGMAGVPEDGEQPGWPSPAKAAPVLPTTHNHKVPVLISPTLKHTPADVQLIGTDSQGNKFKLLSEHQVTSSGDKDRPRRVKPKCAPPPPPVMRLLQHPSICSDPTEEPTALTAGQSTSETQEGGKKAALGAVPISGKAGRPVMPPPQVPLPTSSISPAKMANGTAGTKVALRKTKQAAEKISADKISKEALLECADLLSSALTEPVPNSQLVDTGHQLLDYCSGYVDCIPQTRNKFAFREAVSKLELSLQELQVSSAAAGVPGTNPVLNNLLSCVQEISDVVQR
MAPK11, sequence (Q15759 whole entry): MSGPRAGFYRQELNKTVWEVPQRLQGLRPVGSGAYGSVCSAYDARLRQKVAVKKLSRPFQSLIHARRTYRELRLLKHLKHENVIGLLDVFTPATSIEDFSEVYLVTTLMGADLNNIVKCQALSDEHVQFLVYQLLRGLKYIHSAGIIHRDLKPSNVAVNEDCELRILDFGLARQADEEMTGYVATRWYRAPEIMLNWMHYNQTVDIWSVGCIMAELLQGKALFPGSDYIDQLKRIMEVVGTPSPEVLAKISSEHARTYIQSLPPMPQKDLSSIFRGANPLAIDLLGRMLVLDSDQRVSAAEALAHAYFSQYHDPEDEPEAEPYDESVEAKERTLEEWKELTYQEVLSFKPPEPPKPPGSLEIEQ
MAP4K4, sequence (O95819 whole entry): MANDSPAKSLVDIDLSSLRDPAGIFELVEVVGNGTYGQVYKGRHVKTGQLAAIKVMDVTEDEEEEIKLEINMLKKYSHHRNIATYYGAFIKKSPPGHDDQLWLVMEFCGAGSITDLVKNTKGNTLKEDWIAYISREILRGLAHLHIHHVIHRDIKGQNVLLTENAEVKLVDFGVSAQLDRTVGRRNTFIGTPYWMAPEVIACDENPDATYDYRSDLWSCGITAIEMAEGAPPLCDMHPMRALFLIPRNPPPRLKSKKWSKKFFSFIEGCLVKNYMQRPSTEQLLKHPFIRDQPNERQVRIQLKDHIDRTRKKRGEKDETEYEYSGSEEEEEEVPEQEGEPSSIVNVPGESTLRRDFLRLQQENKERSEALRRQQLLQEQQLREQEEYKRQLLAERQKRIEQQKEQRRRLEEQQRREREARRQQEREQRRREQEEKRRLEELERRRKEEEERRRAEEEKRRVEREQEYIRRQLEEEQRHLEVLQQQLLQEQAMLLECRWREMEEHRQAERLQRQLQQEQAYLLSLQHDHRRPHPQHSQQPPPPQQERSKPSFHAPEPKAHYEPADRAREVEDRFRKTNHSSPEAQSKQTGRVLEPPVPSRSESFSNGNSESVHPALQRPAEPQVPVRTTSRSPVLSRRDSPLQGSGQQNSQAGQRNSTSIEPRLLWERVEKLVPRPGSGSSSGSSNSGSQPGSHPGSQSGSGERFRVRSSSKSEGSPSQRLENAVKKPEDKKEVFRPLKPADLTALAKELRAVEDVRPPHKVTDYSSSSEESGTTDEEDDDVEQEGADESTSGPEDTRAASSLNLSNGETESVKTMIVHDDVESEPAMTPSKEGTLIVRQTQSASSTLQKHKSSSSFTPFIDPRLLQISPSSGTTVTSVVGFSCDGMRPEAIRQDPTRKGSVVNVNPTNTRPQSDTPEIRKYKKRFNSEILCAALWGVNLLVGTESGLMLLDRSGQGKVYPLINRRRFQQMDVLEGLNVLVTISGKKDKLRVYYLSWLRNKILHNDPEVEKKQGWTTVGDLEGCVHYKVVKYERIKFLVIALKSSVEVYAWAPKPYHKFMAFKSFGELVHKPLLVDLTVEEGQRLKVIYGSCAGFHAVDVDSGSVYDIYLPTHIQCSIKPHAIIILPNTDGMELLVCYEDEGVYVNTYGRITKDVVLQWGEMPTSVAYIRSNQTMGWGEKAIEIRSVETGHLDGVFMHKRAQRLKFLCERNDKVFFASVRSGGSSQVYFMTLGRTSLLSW

Cc1ccc(C(=O)Nc2ccc(CN3CCN(CCCN)CC3)c(C(F)(F)F)c2)cc1C#Cc1cnc2cccnn12 [c-ponatinib] was tested, and the “Av. SC comp.” value (MAP3K1; + free ponatinib) was 0, the “Total SC comp.” value (MAP3K1; + free ponatinib) was 0 and the “Av. SC” value (MAP3K1; no competitor) was 9. For the same compound, the “Total SC” value (MAP3K1; no competitor) was 36, the “Av. SC comp.” value (ABL2; + free ponatinib) was 0 and the “Total SC comp.” value (ABL2; + free ponatinib) was 0. For the same compound, the “Av. SC” value (ABL2; no competitor) was 17.25, the “Total SC” value (ABL2; no competitor) was 69 and the “Av. SC comp.” value (MAPKAPK3; + free ponatinib) was 0. The “Total SC comp.” value (MAPKAPK3; + free ponatinib) was 0, the “Av. SC” value (MAPKAPK3; no competitor) was 10.5 and the “Total SC” value (MAPKAPK3; no competitor) was 42. The “Av. SC comp.” value (TNIK; + free ponatinib) was 0, the “Total SC comp.” value (TNIK; + free ponatinib) was 0 and the “Av. SC” value (TNIK; no competitor) was 26.75. The “Total SC” value (TNIK; no competitor) was 107, the “Av. SC comp.” value (MAPK11; + free ponatinib) was 0 and the “Total SC comp.” value (MAPK11; + free ponatinib) was 0. For the same compound, the “Av. SC” value (MAPK11; no competitor) was 3, the “Total SC” value (MAPK11; no competitor) was 12 and the “Av. SC comp.” value (MLKL; + free ponatinib) was 0. The “Total SC comp.” value (MLKL; + free ponatinib) was 0, the “Av. SC” value (MLKL; no competitor) was 5 and the “Total SC” value (MLKL; no competitor) was 20. For the same compound, the “Av. SC comp.” value (CDK19; + free ponatinib) was 0, the “Total SC comp.” value (CDK19; + free ponatinib) was 0 and the “Av. SC” value (CDK19; no competitor) was 7.5. For the same compound, the “Total SC” value (CDK19; no competitor) was 30, the “Av. SC comp.” value (MAP4K4; + free ponatinib) was 10.75 and the “Total SC comp.” value (MAP4K4; + free ponatinib) was 43. The “Av. SC” value (MAP4K4; no competitor) was 54.5, the “Total SC” value (MAP4K4; no competitor) was 218 and the “Av. SC comp.” value (YWHAG; + free ponatinib) was 3.25. For the same compound, the “Total SC comp.” value (YWHAG; + free ponatinib) was 13, the “Av. SC” value (YWHAG; no competitor) was 11.25 and the “Total SC” value (YWHAG; no competitor) was 45.
